Assay results published in PMC8453848, “Effect of GLPG1205, a GPR84 Modulator, on CYP2C9, CYP2C19, and CYP1A2 Enzymes: In Vitro and Phase 1 Studies” (Clinical Pharmacology in Drug Development, 2021).
Where two headings read alike, the source gives them in different places.

Assays:
[1] = test system: CYP1A2 mRNA; assay: in vitro; details: human, hepatocytes, 24 h
Protocol: (§1) GLPG1205 was incubated with monolayer cultures of fresh human hepatocytes from 3 individual donors for 24 hours (messenger ribonucleic acid [mRNA] analysis) or 48 hours (enzyme activity) at 6 different concentrations: 0.5, 1, 5, 10, 50, and 100 μM (0.19, 0.38, 1.89, 3.78, 18.9, and 37.8 μg/mL, respectively). All incubations contained 0.4% dimethylsulfoxide (DMSO). Incubation with 50 μM omeprazole containing 0.1% DMSO was used as a positive control. Incubations with 0.1% and 0.4% DMSO alone were used as negative controls.
(§2) Following a 24‐hour incubation, CYP1A2 mRNA was quantified using real‐time quantitative reverse transcription polymerase chain reaction.
(§3) A concentration‐dependent increase in mRNA of <100% was considered a negative finding when the increase in mRNA was less than 20% of the response of the positive control.
(§4) Incubation for CYP1A2 Induction Experiment The incubations for enzyme activity measurements were performed with cell monolayers in 96-well plates and the incubations for mRNA measurements were performed with cell monolayers in 24-well plates.^3
(§5) GLPG1205 was incubated with monolayer culture of human fresh hepatocytes from 3 individual donors for 24 or 48 hours, for messenger ribonucleic acid (mRNA) analysis and enzyme activity, respectively, at 6 different concentrations (n = 3): 0.1, 0.5, 1, 5, 10 and 50 µM (0.038, 0.19, 0.38, 1.89, 3.78 and 18.9 µg/mL, respectively). […]
(§6) mRNA Analysis At the end of the 24-hour incubation period, the incubation medium was removed and the cell monolayers were washed twice with 500 µL phosphate buffered saline. […] Total RNA and RNA quality were assessed by measuring 260/280 nm and 260/230 nm absorbance ratios. RNA concentrations were used to normalize the quantity of RNA used for the reverse transcriptase assay. […]
(§7) Quantitative real-time reverse transcription polymerase chain reaction (qRT-PCR) was performed using SYBRGreen® validated primers for CYP1A2.^3 The housekeeping gene glyceraldehyde 3-phosphate dehydrogenase (GAPDH) was analyzed in parallel as the control gene. […]
(§8) The fold induction (FI) was determined as: […]

[2] = test system: CYP1A2; assay: in vitro; details: human
Protocol: as §1, §2, §3, §4, §5, §6, §7, §8

[3] = target: T1, CYP1A2 (Homo sapiens, UniProt P05177); assay: CYP1A2 inhibition, phenacetin O-deethylase assay in human liver microsomes; type: in vitro ADME; set-up: from tissue; host or cells: in vivo, 14 healthy male subjects; details: for IC50: estimated
T1 sequence (P05177 1-516): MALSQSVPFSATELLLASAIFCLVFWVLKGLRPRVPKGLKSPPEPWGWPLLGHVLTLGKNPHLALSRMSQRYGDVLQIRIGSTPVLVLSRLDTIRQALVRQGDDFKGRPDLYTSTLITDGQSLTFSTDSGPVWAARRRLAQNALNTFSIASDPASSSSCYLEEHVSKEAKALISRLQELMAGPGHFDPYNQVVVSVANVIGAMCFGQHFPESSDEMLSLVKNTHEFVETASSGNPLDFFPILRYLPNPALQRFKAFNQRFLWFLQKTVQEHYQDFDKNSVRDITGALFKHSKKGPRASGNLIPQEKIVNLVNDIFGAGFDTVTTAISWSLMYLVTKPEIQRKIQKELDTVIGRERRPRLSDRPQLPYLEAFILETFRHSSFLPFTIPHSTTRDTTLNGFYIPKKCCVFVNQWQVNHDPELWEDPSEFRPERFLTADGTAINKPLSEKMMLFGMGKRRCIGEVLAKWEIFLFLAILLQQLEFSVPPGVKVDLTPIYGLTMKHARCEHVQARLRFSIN
Protocol: Inhibition of the biotransformation of CYP‐specific substrates by GLPG1205 was studied using human liver microsomes. Incubation was performed at 37°C with the following conditions: n = 3 for all assays; 0.1 M phosphate buffer (pH 7.4), the cofactor nicotinamide adenine dinucleotide phosphate (NADPH) incubated at 2 mM, the CYP‐specific substrate incubated at 1 nonsaturating concentration, and GLPG1205. Additional incubation was performed with (1) a 30‐minute preincubation step of GLPG1205 with microsomes before the addition of the cofactor NADPH and CYP substrate; and (2) a 30‐minute preincubation step of GLPG1205 with microsomes and the cofactor NADPH, before the addition of the CYP substrate. GLPG1205 was tested at 6 concentrations: 0.5, 1, 5, 10, 50, and 100 μM (0.19, 0.38, 1.89, 3.78, 18.9, and 37.8 μg/mL, respectively), for each condition. The CYP‐specific substrates were incubated per the above conditions at the following concentrations: tolbutamide, 200 μM, CYP2C9 substrate; S‐mephenytoin, 60 μM, CYP2C19 substrate; phenacetin, 40 μM, CYP1A2 substrate.
Metabolites of the CYP‐specific substrates (acetaminophen for CYP1A2, hydroxytolbutamide for CYP2C9, hydroxymephenytoin for CYP2C19) were quantified using LC‐MS/MS.
Enzymatic activity in the presence of GLPG1205 was expressed as a percentage of the control activity obtained with the vehicle only (ie, without GLPG1205 or reference inhibitor). Decreases in activity of less than 20% were not considered clinically relevant.
Protocol for CYP Inhibition of the biotransformation of CYP-specific substrates by GLPG1205 was studied using human liver microsomes.^7 Incubations were performed at 37°C with the following conditions: n = 3 for all assays; 0.1 M phosphate buffer pH 7.4; the cofactor β-nicotinamide adenine dinucleotide phosphate (NADPH) incubated at 2 mM; the CYP-specific substrate incubated at one non-saturating concentration; and GLPG1205. Additional incubations were performed with: 1) a 30-minute preincubation step of GLPG1205 with microsomes before addition of the cofactor NADPH and CYP substrate; and 2) a 30-minute preincubation step of GLPG1205 with microsomes and the cofactor NADPH, before addition of the CYP substrate.
GLPG1205 was tested at 6 concentrations: 0.5, 1, 5, 10, 50 and 100 µM (0.19, 0.38, 1.89, 3.78, 18.9, 37.8 µg/mL, respectively).
The CYP-specific substrates were incubated at the following conditions: tolbutamide (200 µM; CYP2C9); S-mephenytoin (60 µM; CYP2C19); phenacetin (40 µM; CYP1A2).^8-10 Reference inhibitors (as detailed in the previous section) were incubated in parallel. For all assays, the following controls were incubated in parallel: 1) with CYP substrate, without microsomes, with NADPH, without inhibitor (to check for substrate stability); 2) with CYP substrate, with microsomes, without NADPH, without inhibitor (to check for non-NADPH-dependent metabolism of substrate); and 3) without substrate, with microsomes, with NADPH, with test compound or reference inhibitor (to check for potential analytical interference).
At the end of the incubation period, the reaction was stopped with the addition of 0.15 M phosphoric acid (300 µL); proteins were allowed to precipitate for a minimum of 1 hour at approximately 4°C. After centrifugation at 3200 g for 20 minutes at approximately + 4°C, supernatants were collected.

With `O=c1nc(OC[C@@H]2COCCO2)cc2n1CCc1cc(C#CC3CC3)ccc1-2` [GLPG1205, 9‐cyclopropylethynyl‐2‐[(S)‐1‐(1,4)dioxan‐2‐ylmethoxy]‐6,7‐dihydropyrimido[6,1‐a]isoquinolin‐4‐one] the “increase in CYP1A2 mRNA expression compared with the vehicle control” value [1] was “greater than 100%”, the fold induction at 24 h, 1 µM ([2]; CYP1A2 mRNA, fold induction, mean (SD)) was 6.12 ± 0.65 and the fold induction at 24 h, 1 µM ([2]; maximum fold induction of CYP1A2 mRNA) was 6. The “inhibition of CYP1A2 in words” value ([3]; GLPG1205 50‐100 μM) was “Weak”, the IC50 ([3]; human liver microsomes, read-out: IC50 for inhibition of CYP1A2) was no less than 100 µM and the IC50 ([3]; equivalent of ≥100 μM, read-out: IC50 for inhibition of CYP1A2, equivalent) was no less than 99.9 µM. It also gave an inhibition at 7 min, 100 µM ([3]; human, liver microsomes, pH 7.4, probe phenacetin 40 µM, GLPG1205 100 μM following a 30‐minute preincubation with NADPH) of 52.9% and an inhibition at 7 min ([3]; human, liver microsomes, pH 7.4, probe phenacetin 40 µM, GLPG1205 50‐100 μM, phenacetin 40 μM) of 20.4 to 38%.
